This note sets out measurements from paper PMC4723341, “Ribonuclease H/DNA Polymerase HIV-1 Reverse Transcriptase Dual Inhibitor: Mechanistic Studies on the Allosteric Mode of Action of Isatin-Based Compound RMNC6” (PLoS ONE, 2016).

Molecules are shown by their SMILES.

In assay [1] the target is HIV-1 RT-associated RDDP activity, HIV-1 group O RT (Human immunodeficiency virus type 1 group O, UniProt Q79666). Description: RDDP activity assay, HIV-1 group O RT. The note with it: read-out: IC50 RDDP. It is filed as biochemical. An excerpt: Recombinant HIV-1 group O RT was expressed and purified as previously described. It was obtained as a heterodimer composed of subunits of 66 and 51 kDa, with a polyhistidine tag at the C-terminus of p66. For this purpose, the RT p66 subunit encoded within a p66RTB expression vector was co-expressed with the HIV-1 protease in E. coli XL-1 Blue, and the obtained heterodimers were then purified by ionic exchange followed by chromatography on Ni2+-nitriloacetic acid agarose. The enzyme was quantified by active site titration before biochemical studies.
RNA-dependent DNA polymerase (RDDP) activity was measured as described in 25 μL volume containing 60 mM Tris-HCl buffer pH 8.1, 8 mM MgCl2, 60 mM KCl, 13 mM DTT, 2.5 μM poly(A)-oligo(dT), 100 μM dTTP, increasing concentrations of inhibitors, whose dilution were made in water, and different amounts of enzymes according to a linear range of dose-response curve: 6 ng wt RT; 30 ng K103N RT; 12 ng V106ART; 19 ng V108A RT; 1.51.5 ng Y181C RT; 45 ng Y188A RT; 15 ng Y188L RT; 30 ng E224A RT; 15 ng P225A RT; 18 ng P226A RT; 23 ng F227A RT; 15 ng L228A RT; 30 ng W229A RT; 30 ng M230A RT; 15 ng G231A RT; 15 ng N474A RT; 15 ng Y501A RT; 15 ng A502F RT; 19 ng A508V RT; 38 ng HIV-1 group O RT. After enzyme addition, the reaction mixture was incubated for 30 min at 37°C and the stopped by addition of EDTA. […]

For another assay, the target named is T1, p66/p51 HIV-1 RT (Human immunodeficiency virus type 1 group M subtype B, UniProt P04585).
T1 construct: The 1:1 ration between the p66/p51 subunits was also verified; made in house; host or cells: E. coli M15
The experiment in a line: Thermal stability by differential scanning fluorimetry. It is filed as binding. The note with it: increasing concentrations of inhibitor. As for the experimental part:
Thermal stability assays were performed according to Nettleship et al.. […] The mixture was heated from 30 to 90°C in increments of 0.2°C. Fluorescence intensity was measured using excitation and emission wavelengths of 483 and 568 nm, respectively. Changes in protein thermal stability (ΔTm) upon inhibitor binding were analyzed by using the LightCycler 480 software. All assays were performed in triplicate.

By IC50 is commonly meant the concentration needed to halve the response being measured.

As for `O=C1Nc2ccc(Cl)cc2[C@@](C#CC2CC2)(C(F)(F)F)O1` [EFV, Efavirenz, reference compound], the concentration for half-maximal inhibition (IC50) in assay [1] worked out at 212 ± 46 nM. As for `Cc1sc2nc(-c3ccc(O)c(O)c3)[nH]c(=O)c2c1C` [VU, 2-(3,4-dihydroxyphenyl)-5,6-dimethylthieno[2,3-d]pyrimidin-4(3H)-one], at p66/p51 HIV-1 RT, the “Tm decrease of HIV-1 RT” value is 0.5−5.5 °C.
